The test system of one experiment is PGE, PGF and PGD. Put plainly: Selectivity: amount of PGE, PGF and PGD produced (anti-aggregating prostaglandins), horse platelets. It counts as biochemical. As to conditions: horse platelet homogenate. The method, then: Horse platelets were prepared from whole horse blood by differential centrifugation. Approximately 10^6 platelets were homogenised in 1 ml 100 mM Tris buffer pH 7.4. […] To each tube was added 20 nM of arachidonic acid containing 10^6 DPM of labelled arachidonic acid and the tubes incubated for 3 minutes at 37° C. in a shaking water bath. After incubation the radioactive products were extracted from the acidified aqueous phase with ethyl acetate and after concentration resolved by thin layer chromatography on silica gel with chloroform/methanol/acetic acid/water (90:8:1:0.8) as a developing solvent. The amount of thromboxane produced was measured by scraping off the radioactive zone corresponding to thromboxane B2 and estimating the radioactivity in a liquid scintillation counter.
The greater the selectivity, the more of the anti-aggregating prostaglandins are produced.
The ED50 and Selectivity results are shown in Table A in which 0 indicates no selectivity; + low selectivity: ++ medium selectivity; +++ high selectivity, and ++++ exceptionally high selectivity.

For experiment [1], the system named is enzymic conversion of the endoperoxides (PGG2 and PGH2) to thromboxane A2 by platelet microsomes. As to conditions: Moncada et al., Prostaglandins 1977; cited from earlier work.
In another experiment the test system is platelet clumps. Put plainly: Disaggregation of platelet clumps.
A further experiment deals with platelet aggregation. The experiment is described as follows: Inhibition of platelet aggregation in vivo.
A further experiment has as its target T1, TXA2 synthetase (Equus caballus, UniProt A0A9L0T8T9).
T1 construct: labelled arachidonic acid substrate, thromboxane B2 measured by TLC
T1 sequence (A0A9L0T8T9 2-534): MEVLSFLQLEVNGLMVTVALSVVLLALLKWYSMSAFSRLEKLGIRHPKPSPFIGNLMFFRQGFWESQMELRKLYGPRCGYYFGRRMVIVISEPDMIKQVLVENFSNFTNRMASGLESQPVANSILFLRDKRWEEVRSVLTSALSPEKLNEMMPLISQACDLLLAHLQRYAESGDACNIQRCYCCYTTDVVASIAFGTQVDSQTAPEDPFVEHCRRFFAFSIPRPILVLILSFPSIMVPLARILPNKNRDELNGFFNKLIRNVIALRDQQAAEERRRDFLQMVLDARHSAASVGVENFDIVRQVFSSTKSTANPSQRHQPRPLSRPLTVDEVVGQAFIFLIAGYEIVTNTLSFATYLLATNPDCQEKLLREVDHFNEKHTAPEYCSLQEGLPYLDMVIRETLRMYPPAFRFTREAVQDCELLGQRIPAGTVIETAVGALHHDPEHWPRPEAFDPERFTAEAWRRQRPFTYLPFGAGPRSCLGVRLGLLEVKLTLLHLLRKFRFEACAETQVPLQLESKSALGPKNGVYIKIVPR
The experiment is described as follows: Inhibition of thromboxane (TXA2) synthetase in homogenised horse platelets, labelled arachidonic acid, thromboxane B2 measured by TLC. It counts as biochemical. Conditions: horse platelet homogenate, pH 7.4. The method, then:
Horse platelets were prepared from whole horse blood by differential centrifugation. Approximately 10^6 platelets were homogenised in 1 ml 100 mM Tris buffer pH 7.4. Various concentrations of active compound were added and the reaction sets incubated for 5 minutes at ambient temperature. To each tube was added 20 nM of arachidonic acid containing 10^6 DPM of labelled arachidonic acid and the tubes incubated for 3 minutes at 37° C. in a shaking water bath. After incubation the radioactive products were extracted from the acidified aqueous phase with ethyl acetate and after concentration resolved by thin layer chromatography on silica gel with chloroform/methanol/acetic acid/water (90:8:1:0.8) as a developing solvent. The amount of thromboxane produced was measured by scraping off the radioactive zone corresponding to thromboxane B2 and estimating the radioactivity in a liquid scintillation counter.
The concentration of active compound to reduce the enzyme activity by 50% (ED50) was established.
By the method of Biological results Example 7 above the ED50 and selectivity values were obtained for the compounds set out in Table B.

The mark [2] stands for this setting: Table B, read-out: ED50 (concentration of active compound to reduce the enzyme activity by 50%) (converted).

Like-named read-outs stand apart in the source and are kept apart here.

The values below come from patent US4431815A, “1-[3-(2,4-Dichlorophenyl)propyl]imidazole and salts thereof” (Burroughs Wellcome Co., priority 1983, dated 1984).

Take `Cc1ccc(Cn2ccnc2)cc1C` [1-(3,4-Dimethylbenzyl)imidazole]: the SELECTIVITY result with PGE, PGF and PGD (Table A) is given as “++”.
For `Cn1ccnc1` [1-methylimidazole], the “inhibition of the enzymic conversion of endoperoxides to thromboxane A2” value in experiment [1] is “some degree of inhibition”.
For `Clc1cccc(Cl)c1C=CCn1ccnc1` [1-[3-(2,6-Dichlorophenyl)prop-2-enyl]imidazole], in the experiment with PGE, PGF and PGD (Table A), the SELECTIVITY entry was “+”.
Take `c1ccc(Cn2ccnc2)cc1` [1-benzylimidazole, 1-Benzylimidazole]: the disaggregating platelet clumps entry in the experiment with platelet clumps is “capable of disaggregating platelet clumps”. Besides, in the experiment with PGE, PGF and PGD (Table B), the SELECTIVITY result is “+++”. For the same compound, the “inhibiting platelet aggregation in vivo” value with platelet aggregation was “capable of inhibiting platelet aggregation in vivo”. Also, the IC50 at TXA2 synthetase (read-out: ED50 (concentration of active compound to reduce the enzyme activity by 50%), Table B) was 31.6 µM.
For the compound `CC(C)c1ccc(Cn2ccnc2)cc1` [1-(4-i-propylbenzyl)imidazole, 1-(4-i-Propylbenzyl)imidazole], the SELECTIVITY in the experiment on PGE, PGF and PGD (Table B) came out at 0. Also, the IC50 at TXA2 synthetase (setting [2]) was 0.499 µM.
With `Clc1ccccc1Cn1ccnc1` [1-(2-chlorobenzyl)imidazole], the SELECTIVITY result in the experiment with PGE, PGF and PGD (Table B) is reported as “++”. Moreover, at TXA2 synthetase (setting [2]), the IC50 was 2.6 µM.
As for `O=[N+]([O-])c1cccc(Cn2ccnc2)c1` [1-(3-nitrobenzyl)imidazole, 1-(3-Nitrobenzyl)imidazole], the IC50 at TXA2 synthetase (setting [2]) is 271 µM.
With `Brc1cccc(Cn2ccnc2)c1` [1-(3-bromobenzyl)imidazole, 1-(3-Bromobenzyl)imidazole], the SELECTIVITY entry with PGE, PGF and PGD (Table B) is given as “+++”. On TXA2 synthetase (setting [2]), the IC50 is 61.2 µM.
Take `Cc1ccc(Cn2ccnc2)cc1` [1-(4-methylbenzyl)imidazole, 1-(4-Methylbenzyl)imidazole]: in the experiment on PGE, PGF and PGD (Table B), the SELECTIVITY result is recorded as “+”. Besides, on TXA2 synthetase (setting [2]), the IC50 was 174 µM.
Take `c1c[nH]cn1` [Imidazole]: in experiment [1], the “inhibition of the enzymic conversion of endoperoxides to thromboxane A2” value is “some degree of inhibition”.
Regarding `Brc1ccc(Cn2ccnc2)cc1` [1-(4-bromobenzyl)imidazole, 1-(4-Bromobenzyl)imidazole], the IC50 at TXA2 synthetase (setting [2]) was 19.4 µM.
In the case of `Cc1cccc(-n2ccnc2)c1C` [1-(2,3-dimethylphenyl)imidazole], the SELECTIVITY entry in the experiment with PGE, PGF and PGD (Table B) is reported as “++”. On TXA2 synthetase (setting [2]), the IC50 was approximately 17.4 µM.
Regarding `c1ccc(CCn2ccnc2)cc1` [1-(2-phenylethyl)imidazole, 1-(2-Phenylethyl)imidazole], the SELECTIVITY result with PGE, PGF and PGD (Table B) is listed as “+”. Besides, on TXA2 synthetase (setting [2]), the IC50 was 116 µM.
As for `Fc1ccc(Cn2ccnc2)cc1` [1-(4-fluorobenzyl)imidazole, 1-(4-Fluorobenzyl)imidazole], on TXA2 synthetase (setting [2]), the IC50 was 159 µM.
Take `Nc1cccc(Cn2ccnc2)c1` [1-(3-aminobenzyl)imidazole, 1-(3-Aminobenzyl)imidazole]: the SELECTIVITY result in the experiment with PGE, PGF and PGD (Table B) was “++”. Also, the IC50 at TXA2 synthetase (setting [2]) is approximately 57.7 µM.
With `Cc1cc(C)c(Cn2ccnc2)c(C)c1` [1-(2,4,6-Trimethylbenzyl)imidazole, 1-(2,4,6-trimethylbenzyl)imidazole], in the experiment with platelet clumps, the disaggregating platelet clumps result is on record as “capable of disaggregating platelet clumps”. Besides, the SELECTIVITY result in the experiment with PGE, PGF and PGD (Table A) was “++”. Further, in the experiment with platelet aggregation, the “inhibiting platelet aggregation in vivo” value is reported as “capable of inhibiting platelet aggregation in vivo”.
Regarding `Clc1ccc(C=CCn2ccnc2)c(Cl)c1` [1-[3-(2,4-Dichlorophenyl)prop-2-enyl]imidazole], the SELECTIVITY result in the experiment with PGE, PGF and PGD (Table A) is on record as “+”.
In the case of `C(=Cc1ccccc1)Cn1ccnc1` [1-(3-phenylprop-2-enyl)imidazole, 1-(3-Phenylprop-2-enyl)imidazole], the IC50 on TXA2 synthetase (setting [2]) was 92.3 µM.
For `Clc1ccc(CCCn2ccnc2)c(Cl)c1` [1-[3-(2,4-Dichlorophenyl)propyl]imidazole], the disaggregating platelet clumps entry in the experiment on platelet clumps was “capable of disaggregating platelet clumps”. For the same compound, the SELECTIVITY result was “++” in the experiment with PGE, PGF and PGD (Table A); “++” with PGE, PGF and PGD (Table B). In the experiment on platelet aggregation, the “inhibiting platelet aggregation in vivo” value is given as “capable of inhibiting platelet aggregation in vivo”. Further, the IC50 at TXA2 synthetase (Table A, read-out: ED50 (concentration of active compound to reduce the enzyme activity by 50%) (converted)) was 1.96 µM; on TXA2 synthetase (setting [2]), 2.35 µM.
For the compound `c1ccc(CCCn2ccnc2)cc1` [1-(3-phenylpropyl)imidazole, 1-(3-Phenylpropyl)imidazole], the SELECTIVITY entry in the experiment with PGE, PGF and PGD (Table B) is given as “+”. Further, on TXA2 synthetase (setting [2]), the IC50 was 134 µM.
For the compound `CC(Cn1ccnc1)c1ccccc1` (stereo not drawn) [1-(2-phenylpropyl)imidazole, 1-(2-Phenylpropyl)imidazole], on TXA2 synthetase (setting [2]), the IC50 is less than 26.8 µM.
Turning to `Clc1ccc(Cn2ccnc2)c(Cl)c1` [1-(2,4-dichlorobenzyl)imidazole, 1-(2,4-Dichlorobenzyl)imidazole], the disaggregating platelet clumps entry with platelet clumps was “capable of disaggregating platelet clumps”. In the experiment with platelet aggregation, the “inhibiting platelet aggregation in vivo” value is given as “capable of inhibiting platelet aggregation in vivo”. Further, at TXA2 synthetase (setting [2]), the IC50 was 8.81 to 35.2 µM.
